ChEMBL document CHEMBL5331122, “Structure-Activity Relationship Study of Antimicrobial Peptide PE2 Delivered Novel Linear Derivatives with Potential of Eradicating Biofilms and Low Incidence of Drug Resistance” (J Med Chem, 2023)
Activity calls are given as the source filed them.

Experiments:
[1] = Cytotoxicity against human HEK293T cells assessed as inhibition of cell growth incubated for 24 hrs by resazurin dye based analysis; assay type: toxicity, HEK-293T
Cell membrane [2] = experiment: Induction of outer membrane permeabilization in Escherichia coli ATCC 25922 assessed as increase in fluorescence intensity at 4 times MIC measured for 12 hrs by NPN uptake assay; assay type: subcellular
Escherichia coli [3] = experiment: Antibiofilm activity against Escherichia coli ATCC 25922 assessed as biofilm eradication at 2 times MIC incubated for 24 hrs; assay type: functional, organism-based
Escherichia coli [4] = experiment: Antibiofilm activity against Escherichia coli ATCC 25922 assessed as biofilm eradication at 4 times MIC incubated for 24 hrs; assay type: functional, organism-based
Cell membrane [5] = experiment: Induction of outer membrane permeabilization in Escherichia coli ATCC 25922 assessed as increase in fluorescence intensity at 2 times MIC measured for 12 hrs by NPN uptake assay; assay type: subcellular
Escherichia coli [6] = experiment: Antibacterial activity against Escherichia coli ATCC 25922 in presence of 10% mouse serum measured for 6 hrs; assay type: functional, organism-based
Staphylococcus aureus [7] = experiment: Induction of membrane morphological changes in Staphylococcus aureus ATCC 25923 at 4 times MIC measured at 0.5 to 2 hrs by SEM analysis; assay type: functional, organism-based; conditions: time 0.5-2 hrs
Escherichia coli [8] = experiment: Inhibition of biofilm formation in Escherichia coli ATCC 25922 assessed as inhibition of biofilm formation at 1/2 times MIC incubated for 24 hrs by crystal violet staining based analysis; assay type: functional, organism-based
Staphylococcus aureus [9] = experiment: Antibacterial activity against Staphylococcus aureus ATCC 25923 assessed as bacterial growth inhibition incubated for 18 hrs by broth microdilution method; assay type: functional
Staphylococcus aureus [10] = experiment: Inhibition of biofilm formation in Staphylococcus aureus ATCC 25923 assessed as inhibition of biofilm formation at 2 times MIC incubated for 24 hrs by crystal violet staining based analysis; assay type: functional, organism-based
Staphylococcus aureus [11] = experiment: Antibiofilm activity against Staphylococcus aureus ATCC 25923 assessed as biofilm eradication at 8 times MIC incubated for 24 hrs; assay type: functional, organism-based
Staphylococcus aureus [12] = experiment: Bactericidal activity against Staphylococcus aureus ATCC 25923 assessed as inhibition of bacterial growth at 0.5 to 2 times MIC by time-kill assay; assay type: functional, organism-based; conditions: time <= 360.0 min, TDE = time-dependent effect
Cell membrane [13] = experiment: Induction of outer membrane permeabilization in Escherichia coli ATCC 25922 assessed as increase in fluorescence intensity at 1 to 4 times MIC measured for 12 hrs by NPN uptake assay; assay type: subcellular
Staphylococcus aureus [14] = experiment: Antibiofilm activity against Staphylococcus aureus ATCC 25923 assessed as biofilm eradication at 1 times MIC incubated for 24 hrs; assay type: functional, organism-based
Klebsiella pneumoniae = experiment: Antibacterial activity against Klebsiella pneumoniae ATCC 700603 assessed as bacterial growth inhibition incubated for 18 hrs by broth microdilution method; assay type: functional
Escherichia coli [15] = experiment: Bactericidal activity against Escherichia coli ATCC 25922 assessed as inhibition of bacterial growth incubated upto 360 mins by time-kill assay; assay type: functional, organism-based
Staphylococcus aureus [16] = experiment: Antibacterial activity against Staphylococcus aureus ATCC 25923 assessed as fold increase in MIC in presence of ZnCl2; assay type: functional
Cell membrane [17] = experiment: Induction of inner membrane permeabilization in Escherichia coli ML-35 ATCC 43837 assessed as increase in fluorescence intensity at 1 to 4 times MIC incubated upto 150 mins by ONPG staining based analysis; assay type: subcellular
Escherichia coli [18] = experiment: Induction of drug resistance against Escherichia coli ATCC 25922 assessed as fold increase in MIC measured upto 15 passages by sequential passaging method; assay type: functional
Staphylococcus aureus [19] = experiment: Induction of membrane morphological changes in Staphylococcus aureus ATCC 25923 assessed as appearance of blistered bacterial cells at 4 times MIC measured at 0.5 to 2 hrs by SEM analysis; assay type: functional, organism-based; conditions: time 0.5-2 hrs
Staphylococcus aureus [20] = experiment: Antibiofilm activity against Staphylococcus aureus ATCC 25923 assessed as biofilm eradication at 4 times MIC incubated for 24 hrs; assay type: functional, organism-based
Escherichia coli [21] = experiment: Antibacterial activity against Escherichia coli ATCC 25922 assessed as fold increase in MIC in presence of KCl; assay type: functional
Escherichia coli [22] = experiment: Antibacterial activity against Escherichia coli ATCC 25922 assessed as fold increase in MIC in presence of NaCl; assay type: functional
Staphylococcus aureus [23] = experiment: Inhibition of biofilm formation in Staphylococcus aureus ATCC 25923 assessed as inhibition of biofilm formation at 1/4 times MIC incubated for 24 hrs by crystal violet staining based analysis; assay type: functional, organism-based
Escherichia coli [24] = experiment: Antimicrobial activity against Escherichia coli ATCC 25922 assessed as reduction in microbial growth measured for 18 hrs in presence of 512 microg/ml LPS; assay type: functional, organism-based
Escherichia coli [25] = experiment: Antibacterial activity against Escherichia coli ATCC 25922 assessed as fold increase in MIC in presence of ZnCl2; assay type: functional
Staphylococcus aureus [26] = experiment: Antibacterial activity against Staphylococcus aureus ATCC 25923 in presence of 10% mouse serum measured for 6 hrs; assay type: functional, organism-based
Escherichia coli [27] = experiment: Antibacterial activity against Escherichia coli ATCC 25922 assessed as fold increase in MIC in presence of FeCl3; assay type: functional
Bacillus subtilis = experiment: Antibacterial activity against Bacillus subtilis ATCC 23857 assessed as bacterial growth inhibition incubated for 18 hrs by broth microdilution method; assay type: functional
Staphylococcus aureus [28] = experiment: Bactericidal activity against Staphylococcus aureus ATCC 25923 assessed as inhibition of bacterial growth incubated upto 360 mins by time-kill assay; assay type: functional, organism-based
Escherichia coli [29] = experiment: Antimicrobial activity against Escherichia coli ATCC 25922 assessed as reduction in survival bacterial growth in presence of chymotrypsin measured after 6 hrs; assay type: functional, organism-based
Escherichia coli [30] = experiment: Bactericidal activity against Escherichia coli ATCC 25922 assessed as inhibition of bacterial growth at 1/2 times MIC measured at 180 mins by time-kill assay; assay type: functional, organism-based
Escherichia coli [31] = experiment: Inhibition of biofilm formation in Escherichia coli ATCC 25922 assessed as inhibition of biofilm formation incubated for 24 hrs by crystal violet staining based analysis; assay type: functional, organism-based
Escherichia coli [32] = experiment: Antibacterial activity against Escherichia coli ATCC 25922 assessed as fold increase in MIC in presence of MgCl2; assay type: functional
Staphylococcus aureus [33] = experiment: Inhibition of biofilm formation in Staphylococcus aureus ATCC 25923 assessed as inhibition of biofilm formation at 1/2 times MIC incubated for 24 hrs by crystal violet staining based analysis; assay type: functional, organism-based
Staphylococcus aureus [34] = experiment: Antibacterial activity against Staphylococcus aureus ATCC 25923 assessed as fold increase in MIC in presence of MgCl2; assay type: functional
Escherichia coli [35] = experiment: Induction of membrane morphological changes in Escherichia coli ATCC 25922 at 4 times MIC measured at 0.5 to 2 hrs by SEM analysis; assay type: functional, organism-based; conditions: time 0.5-2 hrs
Staphylococcus aureus [36] = experiment: Induction of drug resistance against Staphylococcus aureus ATCC 25923 measured upto 15 passages by sequential passaging method; assay type: functional
Escherichia coli [37] = experiment: Antibiofilm activity against Escherichia coli ATCC 25922 assessed as biofilm eradication at 1 times MIC incubated for 24 hrs; assay type: functional, organism-based
Staphylococcus aureus [38] = experiment: Inhibition of biofilm formation in Staphylococcus aureus ATCC 25923 assessed as inhibition of biofilm formation at 1 times MIC incubated for 24 hrs by crystal violet staining based analysis; assay type: functional, organism-based
Escherichia coli [39] = experiment: Antimicrobial activity against Escherichia coli ATCC 25922 assessed as reduction in survival bacterial growth in presence of trypsin measured after 6 hrs; assay type: functional, organism-based
Staphylococcus aureus [40] = experiment: Antibiofilm activity against Staphylococcus aureus ATCC 25923 assessed as biofilm eradication at 2 times MIC incubated for 24 hrs; assay type: functional, organism-based

CCCCCCC(=O)N[C@@H](CCN)C(=O)N[C@H](C(=O)N[C@@H](CCN)C(=O)N[C@H](Cc1ccccc1)C(=O)N[C@@H](CC(C)C)C(=O)N[C@@H](CCN)C(=O)N[C@@H](C(=O)N[C@@H](CC(C)C)C(=O)N[C@@H](Cc1ccc(O)cc1)C(N)=O)C(C)C)[C@@H](C)CC
64: fold change (FC) (Escherichia coli [18])
<=2: fold change (FC) (Staphylococcus aureus [16]) | fold change (FC) (Escherichia coli [21]) | fold change (FC) (Escherichia coli [22]) | fold change (FC) (Escherichia coli [25]) | fold change (FC) (Escherichia coli [27]) | fold change (FC) (Escherichia coli [32]) | fold change (FC) (Staphylococcus aureus [34])
8 µg/mL: MIC (Staphylococcus aureus [9]) | MIC (Klebsiella pneumoniae)
inactive: Activity (Staphylococcus aureus [14]) | Activity (Escherichia coli [24]) | Activity (Escherichia coli [37]) | inhibition (Staphylococcus aureus [38])
2 µg/mL: MIC (Bacillus subtilis)
active: Activity (Cell membrane [2]) | Activity (Escherichia coli [3]) | Activity (Escherichia coli [4]) | Activity (Cell membrane [5]) | Activity (Escherichia coli [6]) | Activity (Staphylococcus aureus [7]) | inhibition (Escherichia coli [8]) | inhibition (Staphylococcus aureus [10]) | Activity (Staphylococcus aureus [11]) | Activity (Staphylococcus aureus [12]) Tde | Activity (Cell membrane [13]) | Activity (Escherichia coli [15]) Dose-Dependent Effect | Activity (Cell membrane [17]) | Activity (Staphylococcus aureus [19]) | Activity (Staphylococcus aureus [20]) | inhibition (Staphylococcus aureus [23]) | Activity (Staphylococcus aureus [26]) | Activity (Staphylococcus aureus [28]) Dose-Dependent Effect | Activity (Escherichia coli [29]) | Activity (Escherichia coli [30]) | inhibition (Escherichia coli [31]) Dose-Dependent Effect | inhibition (Staphylococcus aureus [33]) | Activity (Escherichia coli [35]) | Activity (Staphylococcus aureus [36]) | Activity (Escherichia coli [39]) | Activity (Staphylococcus aureus [40])
32.5 µg/mL: IC50 at 24 h [1]

CC[C@H](C)[C@@H]1NC(=O)[C@H](CCN)NC(=O)C[C@@H](C(C)C)OC(=O)[C@H]([C@@H](C)O)NC(=O)[C@H](CC(C)C)NC(=O)[C@@H](C(C)C)NC(=O)[C@H](CCN)NC(=O)[C@H](CC(C)C)NC(=O)[C@@H](Cc2ccccc2)NC(=O)[C@H](CCN)NC1=O
inactive: Activity (Staphylococcus aureus [14]) | Activity (Escherichia coli [24]) | Activity (Escherichia coli [37])
64: fold change (FC) (Escherichia coli [18])
<=2: fold change (FC) (Staphylococcus aureus [16]) | fold change (FC) (Escherichia coli [21]) | fold change (FC) (Escherichia coli [22]) | fold change (FC) (Escherichia coli [25]) | fold change (FC) (Escherichia coli [27]) | fold change (FC) (Escherichia coli [32]) | fold change (FC) (Staphylococcus aureus [34])
29.2 µg/mL: IC50 at 24 h [1]
active: Activity (Cell membrane [2]) | Activity (Escherichia coli [3]) | Activity (Escherichia coli [4]) | Activity (Cell membrane [5]) | Activity (Escherichia coli [6]) | Activity (Staphylococcus aureus [7]) | inhibition (Escherichia coli [8]) | inhibition (Staphylococcus aureus [10]) | Activity (Staphylococcus aureus [11]) | Activity (Staphylococcus aureus [12]) Tde | Activity (Cell membrane [13]) | Activity (Escherichia coli [15]) Dose-Dependent Effect | Activity (Cell membrane [17]) | Activity (Staphylococcus aureus [19]) | Activity (Staphylococcus aureus [20]) | inhibition (Staphylococcus aureus [23]) | Activity (Staphylococcus aureus [26]) | Activity (Staphylococcus aureus [28]) Dose-Dependent Effect | Activity (Escherichia coli [29]) | Activity (Escherichia coli [30]) | inhibition (Escherichia coli [31]) Dose-Dependent Effect | inhibition (Staphylococcus aureus [33]) | Activity (Escherichia coli [35]) | Activity (Staphylococcus aureus [36]) | inhibition (Staphylococcus aureus [38]) | Activity (Escherichia coli [39]) | Activity (Staphylococcus aureus [40])
4 µg/mL: MIC (Klebsiella pneumoniae) | MIC (Bacillus subtilis)
8 µg/mL: MIC (Staphylococcus aureus [9])

CCCCCCCC(=O)N[C@@H](CCN)C(=O)N[C@H](C(=O)N[C@@H](CCN)C(=O)N[C@H](Cc1ccccc1)C(=O)N[C@@H](CC(C)C)C(=O)N[C@@H](CCN)C(=O)N[C@@H](C(=O)N[C@@H](CC(C)C)C(=O)N[C@@H](Cc1ccc(O)cc1)C(N)=O)C(C)C)[C@@H](C)CC
8 µg/mL: MIC (Staphylococcus aureus [9]) | MIC (Klebsiella pneumoniae)
24.2 µg/mL: IC50 at 24 h [1]
64: fold change (FC) (Escherichia coli [18])
inactive: Activity (Cell membrane [5]) | inhibition (Escherichia coli [8]) | Activity (Staphylococcus aureus [14]) | Activity (Escherichia coli [24])
active: Activity (Cell membrane [2]) | Activity (Escherichia coli [3]) | Activity (Escherichia coli [4]) | Activity (Escherichia coli [6]) | Activity (Staphylococcus aureus [7]) | inhibition (Staphylococcus aureus [10]) | Activity (Staphylococcus aureus [11]) | Activity (Staphylococcus aureus [12]) Tde | Activity (Cell membrane [13]) | Activity (Escherichia coli [15]) Dose-Dependent Effect | Activity (Cell membrane [17]) | Activity (Staphylococcus aureus [19]) | Activity (Staphylococcus aureus [20]) | inhibition (Staphylococcus aureus [23]) | Activity (Staphylococcus aureus [26]) | Activity (Staphylococcus aureus [28]) Dose-Dependent Effect | Activity (Escherichia coli [29]) | Activity (Escherichia coli [30]) | inhibition (Escherichia coli [31]) Dose-Dependent Effect | inhibition (Staphylococcus aureus [33]) | Activity (Escherichia coli [35]) | Activity (Staphylococcus aureus [36]) | Activity (Escherichia coli [37]) | inhibition (Staphylococcus aureus [38]) | Activity (Escherichia coli [39]) | Activity (Staphylococcus aureus [40])
2 µg/mL: MIC (Bacillus subtilis)
<=2: fold change (FC) (Staphylococcus aureus [16]) | fold change (FC) (Escherichia coli [21]) | fold change (FC) (Escherichia coli [22]) | fold change (FC) (Escherichia coli [25]) | fold change (FC) (Escherichia coli [27]) | fold change (FC) (Escherichia coli [32]) | fold change (FC) (Staphylococcus aureus [34])
